Paper PMC7582725, “Suppression of hTAS2R16 Signaling by Umami Substances” (International Journal of Molecular Sciences, 2020)
Numbering of substitutions follows the chain as printed.

Assays:
[1] = target: T1, hTAS2R16 (Homo sapiens, UniProt Q9NYV7); conditions: in the presence of 3 mM salicin; read-out: reported IC50; cited from earlier work
T1 construct: expressed in transfected cells; host or cells: HEK293T
T1 sequence (Q9NYV7 1-291): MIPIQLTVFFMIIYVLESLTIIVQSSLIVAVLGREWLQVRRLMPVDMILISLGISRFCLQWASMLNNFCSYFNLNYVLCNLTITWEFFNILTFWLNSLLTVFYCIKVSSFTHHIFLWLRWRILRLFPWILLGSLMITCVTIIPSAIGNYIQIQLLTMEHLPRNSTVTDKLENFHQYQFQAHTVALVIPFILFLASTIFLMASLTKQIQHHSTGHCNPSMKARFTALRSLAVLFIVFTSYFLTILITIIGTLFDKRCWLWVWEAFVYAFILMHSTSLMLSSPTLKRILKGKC

[2] = target: T2, hTAS2R16 P44T (Homo sapiens, UniProt Q9NYV7, P44T); assay: Cellular Ca2+ response, cell-based assay in HEK293T cells expressing probenecid-insensitive mutant hTAS2R16 P44T
T2 construct: expressed in transfected cells; host or cells: HEK293T
T2 sequence (Q9NYV7 1-291 P44T): T1 sequence (Q9NYV7 1-291) with P44T
Method: (§1) HEK293T cells were purchased from American Type Culture Collection (ATCC; Manassas, VA, USA) and cultured as described previously. The plasmids hTAS2R16 and G16αgust44 were constructed as described previously. G16αgust44 and hTAS2R16 were cloned into a cytomegalovirus promoter-based vector and expressed constitutively. Point mutants of N96T and P44T on hTAS2R16 clone and DNA sequencings were performed by Macrogen (Geumcheon-gu, Seoul, Korea). The hTAS2R16 or point mutant expression plasmid was co-transfected with G16αgust44 expression plasmid (4:1) into HEK293T cells using Lipofectamine 2000 (Invitrogen, Carlsbad, CA, USA).
(§2) The umami substances-induced changes in the cytosolic Ca^2+ concentration were measured using a FlexStation III microplate reader (Molecular Devices, Sunnyvale, CA, USA). HEK293T cells transfected with hTAS2R16 were seeded onto 96-well black-wall CellBind surface plates (Corning, NY, USA) for 18–24 h before use. […] The cells were incubated in the dark for 30 min at 37 °C, and then for 15 min at 27 °C in assay buffer consisting of Calcium-4 (FLIPR Calcium 4 Assay Kit, Molecular Devices) and probenecid or the umami compounds. Following treatment, the fluorescence intensity (excitation, 486 nm; emission, 525 nm) of the cell was measured. The relative changes in cell Ca^2+ were plotted as ΔF/F0 on the y-axis, where ΔF is the change in Calcium-4 fluorescence intensity at each time point and F0 is the fluorescence intensity before treatment. The relative response induced by 10 mM salicin was assigned a value of 100.

[3] = target: T1, hTAS2R16; assay: Ca2+ response of hTAS2R16-expressing HEK293T cells to bitter ligands in absence and presence of umami substances (Figure 1; fura-2 F340/F380 imaging / cell-based assay); conditions: MSG 80 mM, IMP 20 mM, L-theanine 80 mM, Glu-Glu 6 mM, Gly-Gly 6 mM
Method: We first verified if non-peptide umami substances affect the downstream signaling mechanism, such as changes in intracellular Ca^2+ of the human bitter taste receptor. […] The increase in fluorescence intensity ratio (F340/F380) with 10 mM salicin was expressed as 100. […] In addition to salicin, hTAS2R16 also recognizes bitter sugars such as phenyl β-D-glucopyranoside and arbutin, a glycosylated hydroquinone extracted from the bearberry plant in the genus Arctostaphylos.
(A) Chemical structures of tested compounds. Summarized data (B) and representative traces (C) showing responses of HEK293T cells co-expressing hTAS2R16 and Gα16gust44 to 10 mM salicin in the absence and presence of umami substances in a cell-based assay. (D,E) Representative ratiometric images of fura-2-loaded hTAS2R16-expressing cells in response to the other ligands, 5 mM arbutin (D) or phenyl β-D-glucopyranoside (E), in the presence of umami substances. The data were normalized as percentages to the maximal signal obtained with the ligands. The color scale indicates the F340/F380 ratio. Scale bar: 11.04 μm. Data are presented as means ± standard error of the mean (SEM) of at least three separate experiments. * p < 0.05, ** p < 0.01, and *** p < 0.001 vs. the 0 mM sample group by Student’s t-test.
as §2, with “Following treatment, the fluorescence intensity (excitation, 486 nm; emission, 525 nm) of the cell was measured.” left out
Cells were seeded onto 96-well black-wall imaging plates (BD Falcon Labware) for 18–26 h prior to their use in an experiment. […] The cells were rinsed with the buffer, incubated in probenecid or sample for 30 min, and then treated with solution containing the ligand. The Fura-2AM-induced fluorescence intensity (excitation at 340 and 380 nm) was measured at emission wavelength of 510 nm using a computer-controlled filter changer (Lambda DG4; Sutter, San Rafael, CA, USA), an Andor Luca CCD camera (Andor Technology, Belfast, UK), and an inverted fluorescence microscope (IX-71; Olympus, Tokyo, Japan). Images were obtained at 3-s intervals and analyzed using MetaFluor software (Molecular Devices, Sunnyvale, CA, USA).

[4] = target: T1, hTAS2R16; assay: Cellular Ca2+ response, cell-based assay (Calcium-4, FlexStation III) in HEK293T cells co-expressing wild-type hTAS2R16 and G16αgust44; conditions: for Maximal Response of salicin: Table 1
Method: as §1, §2

[5] = target: T3, hTAS2R16 N96T (Homo sapiens, UniProt Q9NYV7, N96T); assay: Cellular Ca2+ response, cell-based assay in HEK293T cells expressing probenecid-insensitive mutant hTAS2R16 N96T; conditions: Table 3; pretreatment with sample 0.3 mM
T3 construct: expressed in transfected cells; host or cells: HEK293T
T3 sequence (Q9NYV7 1-291 N96T): T1 sequence (Q9NYV7 1-291) with N96T
Method: as §1, §2

[6] = target: hTAS2R16 (human bitter taste receptor, type 2 taste receptor 16), wild type (human) (UniProt Q9NYV7)
[7] = target: hTAS2R16 (human bitter taste receptor, type 2 taste receptor 16), wild type (human) (UniProt Q9NYV7); remark: listed apart in the source
[8] = target: hTAS2R16 P44T (human) (UniProt Q9NYV7)
[9] = target: hTAS2R16 N96T (human) (UniProt Q9NYV7)
[10] = Table 3, pretreatment with sample 0.3 mM

Maximal Response of salicin, P44T [2, 10]	attenuation of salicin response by pretreatment, P44T mutant ([2]; salicin 0.003–30 mM, probenecid 0.3 mM, MSG 80 mM, L-theanine 80 mM)	inhibition of Ca2+ response to arbutin ([3]; 5 mM arbutin)	inhibition of Ca2+ response to phenyl β-D-glucopyranoside ([3]; phenyl β-D-glucopyranoside)	Maximal Response of salicin ([4]; pretreatment with sample 0.1 mM)	Maximal Response of salicin ([4]; pretreatment with sample 0.3 mM)	Maximal Response of salicin ([4]; pretreatment with sample 1 mM)	Maximal Response of salicin, WT [4, 10]	mechanism of antagonism at hTAS2R16 ([4]; from salicin concentration–response curves at graded antagonist concentrations)	attenuation of salicin response by pretreatment, WT receptor ([4]; salicin 0.003–30 mM, probenecid 0.3 mM, L-theanine 80 mM)	Maximal Response of salicin, N96T [5]	maximal Ca2+ response (ΔF/F0) to salicin (0-30 mM) in cells expressing hTAS2R16 with Glu-Glu at 0, 1, 3, 6 and 10 mM (0.54 at 0 mM); value at 10 mM Glu-Glu [6]	maximal Ca2+ response (ΔF/F0) to salicin in cells expressing wild-type hTAS2R16 after pretreatment with 6 mM Glu-Glu (0.54 without Glu-Glu) [7]	maximal Ca2+ response (ΔF/F0) to salicin in cells expressing hTAS2R16 P44T after pretreatment with 6 mM Glu-Glu (0.62 without Glu-Glu) [8]	maximal Ca2+ response (ΔF/F0) to salicin in cells expressing hTAS2R16 N96T after pretreatment with 6 mM Glu-Glu (0.61 without Glu-Glu); the text says the inhibition by Glu-Glu is lost in this mutant [9]	Compound	IC50 [1] [µM]
0.58 ΔF/F0	not in cells expressing the two mutants	inhibited	inhibited	0.47 ΔF/F0	0.23 ΔF/F0	0.07 ΔF/F0	0.23 ΔF/F0	full insurmountable antagonism	significant attenuation	0.68 ΔF/F0	–	–	–	–	CCCN(CCC)S(=O)(=O)c1ccc(C(=O)O)cc1 [Probenecid, ρ-(dipropylsulfamoyl)benzoic acid]	290
–	–	–	–	–	–	–	–	–	–	–	0.33 ΔF/F0	0.4 ΔF/F0	0.42 ΔF/F0	0.65 ΔF/F0	Glu-Glu (peptide)	–
